Source: article PMC4158450 (Bioorganic & medicinal chemistry letters, 2014)

Legend:
hA3AR [1] = molecular target: T1, hA3AR (Homo sapiens, UniProt P0DMS8); assay: hA3AR radioligand binding; settings: in words, vs hA1AR and hA2AAR
T1 sequence (P0DMS8 1-318): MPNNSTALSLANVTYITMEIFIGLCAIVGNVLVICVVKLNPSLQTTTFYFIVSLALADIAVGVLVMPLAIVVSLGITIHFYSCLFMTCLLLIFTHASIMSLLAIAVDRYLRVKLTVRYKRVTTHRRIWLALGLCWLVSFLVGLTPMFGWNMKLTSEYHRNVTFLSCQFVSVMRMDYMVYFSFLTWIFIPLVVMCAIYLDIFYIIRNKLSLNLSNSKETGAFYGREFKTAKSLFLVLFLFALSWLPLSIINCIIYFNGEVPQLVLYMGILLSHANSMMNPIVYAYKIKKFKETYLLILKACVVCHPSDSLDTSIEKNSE

rA3AR = settings: in words; cited from earlier work
hA2AAR = hA2AAR (Homo sapiens, UniProt P29274); assay: hA2AAR radioligand binding
[2] = system: chronic neuropathic pain (mechanoallodynia), CCI model; assay: chronic constriction injury; assay type: in vivo, mouse; settings: mice, oral administration
hA3AR [3] = molecular target: T1, hA3AR; settings: 1S,2R diastereoisomer of 2 vs 1R,2S isomer; cited from earlier work

Chain of hA2AAR (P29274 whole entry): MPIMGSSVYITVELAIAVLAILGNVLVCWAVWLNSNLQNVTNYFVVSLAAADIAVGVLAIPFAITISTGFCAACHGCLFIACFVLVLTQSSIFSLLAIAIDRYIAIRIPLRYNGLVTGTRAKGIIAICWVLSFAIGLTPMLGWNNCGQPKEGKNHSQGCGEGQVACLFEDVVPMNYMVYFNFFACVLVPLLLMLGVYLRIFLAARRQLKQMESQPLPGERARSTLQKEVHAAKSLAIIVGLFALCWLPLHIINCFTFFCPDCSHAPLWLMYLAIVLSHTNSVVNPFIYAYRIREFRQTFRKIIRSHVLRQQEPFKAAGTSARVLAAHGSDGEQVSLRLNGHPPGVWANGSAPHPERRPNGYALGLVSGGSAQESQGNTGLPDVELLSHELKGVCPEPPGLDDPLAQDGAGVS

With `CNC(=O)[C@@]12C[C@@H]1[C@@H](n1cnc3c(NC4CC4c4ccc(F)c(F)c4)nc(C#Cc4ccccc4)nc31)[C@H](O)[C@@H]2O` (some centres unmarked) [Compound 15] the “selectivity for the A3AR” value (hA3AR [1]) was “very selective”.

For `OC[C@H]1O[C@@H](n2cnc3c(NC4CC4c4ccccc4)nc(C#Cc4ccccc4)nc32)[C@H](O)[C@@H]1O` (some centres unmarked) [Compound 1], the “affinity at the rA3AR as compared to the hA3AR” value (rA3AR) is given as “substantially lower affinity”.

Work on `CNC(=O)[C@@]12C[C@@H]1[C@@H](n1cnc3c(N)nc(C#Cc4ccccc4)nc31)[C@H](O)[C@@H]2O` [Compound 9] yielded a Ki (hA2AAR) of roughly 1 µM.

With `CNC(=O)[C@@]12C[C@@H]1[C@@H](n1cnc3c(N[C@@H]4C[C@H]4c4ccc(F)c(F)c4)nc(C#Cc4ccccn4)nc31)[C@H](O)[C@@H]2O` [Compound 18] the “time of peak effect post-administration” value [2] was 1 h.

In the case of `O=[N+]([O-])c1cccc(C2CC2Nc2nc(C#Cc3ccccc3)nc3c2ncn3[C@@H]2O[C@H](CO)[C@@H](O)[C@H]2O)c1` (some centres unmarked) [Compound 2], the “fold more potent in binding to the hA3AR than the corresponding 1R,2S isomer” value (hA3AR [3]) is given as ~ 10 fold.
